The target in one experiment is ROCK1 (Homo sapiens (Human), UniProt Q13464). The experiment in a line: ROCK assay (LABCHIP peptide phosphorylation), ROCK1. Type of experiment: biochemical. Conditions: 5 μM ATP, 1.5 μM peptide substrate; read-out: ROCK1 IC50.
Another experiment deals with ROCK2 (Homo sapiens (Human), UniProt O75116). Briefly: ROCK assay (LABCHIP peptide phosphorylation), ROCK2. The class given is biochemical. Conditions: 5 μM ATP, 1.5 μM peptide substrate.

The record followed here is US9926282B2, “Phthalazinones and isoquinolinones as rock inhibitors” (BRISTOL-MYERS SQUIBB COMPANY, priority 2013, dated 2018).

pIC50: −log10 of the molar value.

ROCK2, sequence (O75116 whole entry, species assumed): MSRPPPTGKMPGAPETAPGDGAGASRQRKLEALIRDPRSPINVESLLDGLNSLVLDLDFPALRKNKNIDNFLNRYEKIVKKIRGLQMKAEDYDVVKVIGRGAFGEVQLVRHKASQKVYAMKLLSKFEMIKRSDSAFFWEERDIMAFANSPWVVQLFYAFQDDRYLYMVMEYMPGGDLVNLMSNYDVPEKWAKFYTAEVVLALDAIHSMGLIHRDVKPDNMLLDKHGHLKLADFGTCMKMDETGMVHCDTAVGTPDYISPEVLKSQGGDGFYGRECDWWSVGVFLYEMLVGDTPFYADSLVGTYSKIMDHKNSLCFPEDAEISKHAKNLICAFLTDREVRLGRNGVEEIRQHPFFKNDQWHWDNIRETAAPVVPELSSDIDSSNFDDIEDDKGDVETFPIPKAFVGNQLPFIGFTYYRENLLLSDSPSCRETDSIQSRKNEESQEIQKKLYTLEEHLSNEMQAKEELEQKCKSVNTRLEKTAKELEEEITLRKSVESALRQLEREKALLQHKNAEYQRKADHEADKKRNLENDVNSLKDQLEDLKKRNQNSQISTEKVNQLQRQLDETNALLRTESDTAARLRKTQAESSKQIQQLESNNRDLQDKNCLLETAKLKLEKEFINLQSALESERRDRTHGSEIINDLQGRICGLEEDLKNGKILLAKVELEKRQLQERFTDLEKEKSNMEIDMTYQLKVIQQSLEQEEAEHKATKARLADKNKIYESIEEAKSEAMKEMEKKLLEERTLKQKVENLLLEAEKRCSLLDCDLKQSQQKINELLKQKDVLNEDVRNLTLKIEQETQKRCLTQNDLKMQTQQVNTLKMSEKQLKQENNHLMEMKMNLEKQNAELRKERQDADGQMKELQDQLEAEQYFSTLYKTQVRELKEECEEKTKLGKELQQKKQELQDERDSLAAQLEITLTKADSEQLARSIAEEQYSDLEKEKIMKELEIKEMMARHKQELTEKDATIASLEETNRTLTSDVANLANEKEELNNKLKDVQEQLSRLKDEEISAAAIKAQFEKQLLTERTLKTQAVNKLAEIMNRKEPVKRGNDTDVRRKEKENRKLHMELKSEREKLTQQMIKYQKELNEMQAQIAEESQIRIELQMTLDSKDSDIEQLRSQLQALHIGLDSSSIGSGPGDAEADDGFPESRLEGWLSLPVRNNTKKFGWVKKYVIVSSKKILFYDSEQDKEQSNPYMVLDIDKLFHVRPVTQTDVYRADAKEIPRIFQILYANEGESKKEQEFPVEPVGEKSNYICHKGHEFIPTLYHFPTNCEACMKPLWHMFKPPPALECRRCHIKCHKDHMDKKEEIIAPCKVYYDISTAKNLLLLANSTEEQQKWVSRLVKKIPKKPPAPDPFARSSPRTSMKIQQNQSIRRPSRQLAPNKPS
ROCK1, sequence (Q13464 whole entry, species assumed): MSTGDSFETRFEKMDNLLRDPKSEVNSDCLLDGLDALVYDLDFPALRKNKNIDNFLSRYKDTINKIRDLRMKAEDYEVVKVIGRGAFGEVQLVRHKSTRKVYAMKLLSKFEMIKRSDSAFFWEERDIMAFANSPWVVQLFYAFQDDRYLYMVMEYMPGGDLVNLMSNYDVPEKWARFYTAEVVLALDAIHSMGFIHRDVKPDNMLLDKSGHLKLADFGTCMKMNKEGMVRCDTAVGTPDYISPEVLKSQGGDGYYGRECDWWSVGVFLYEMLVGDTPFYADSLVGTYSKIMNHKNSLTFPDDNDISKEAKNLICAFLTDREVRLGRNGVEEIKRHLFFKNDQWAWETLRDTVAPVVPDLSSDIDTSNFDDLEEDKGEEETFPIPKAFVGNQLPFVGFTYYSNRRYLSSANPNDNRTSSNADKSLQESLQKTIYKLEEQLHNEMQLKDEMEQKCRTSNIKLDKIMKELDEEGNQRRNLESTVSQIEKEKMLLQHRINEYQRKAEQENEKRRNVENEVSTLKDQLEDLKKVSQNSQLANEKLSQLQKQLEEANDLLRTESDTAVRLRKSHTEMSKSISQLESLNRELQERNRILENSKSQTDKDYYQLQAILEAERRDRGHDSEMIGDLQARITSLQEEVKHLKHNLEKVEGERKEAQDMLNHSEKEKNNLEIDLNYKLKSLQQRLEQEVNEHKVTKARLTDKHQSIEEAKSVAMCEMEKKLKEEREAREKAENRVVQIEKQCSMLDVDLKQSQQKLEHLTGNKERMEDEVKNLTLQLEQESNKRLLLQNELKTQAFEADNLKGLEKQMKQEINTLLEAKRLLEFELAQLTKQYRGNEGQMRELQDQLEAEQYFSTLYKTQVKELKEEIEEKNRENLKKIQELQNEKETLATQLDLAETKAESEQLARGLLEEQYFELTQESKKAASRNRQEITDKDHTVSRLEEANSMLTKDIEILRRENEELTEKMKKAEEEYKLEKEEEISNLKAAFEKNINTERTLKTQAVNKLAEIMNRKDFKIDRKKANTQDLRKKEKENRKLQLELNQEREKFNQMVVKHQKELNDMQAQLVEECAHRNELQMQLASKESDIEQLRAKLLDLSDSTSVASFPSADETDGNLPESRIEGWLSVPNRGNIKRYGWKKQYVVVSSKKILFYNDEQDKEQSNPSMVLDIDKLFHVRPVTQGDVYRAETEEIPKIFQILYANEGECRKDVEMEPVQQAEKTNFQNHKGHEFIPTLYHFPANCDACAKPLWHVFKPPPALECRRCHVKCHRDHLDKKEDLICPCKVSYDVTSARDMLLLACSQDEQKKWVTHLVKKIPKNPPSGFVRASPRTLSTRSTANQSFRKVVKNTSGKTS

In general, pIC50 refers to the IC50 on a negative log10 scale, so that one unit is a factor of ten. Regarding `O=C(Cc1ccc(-c2n[nH]c(=O)c3ccccc23)cc1)N1CCc2ccc(OCc3ccccn3)cc21` [Example 271, 4-(4-{2-oxo-2-[6-(pyridin-2-ylmethoxy)-2,3-dihydro-1H-indol-1-yl]ethyl}phenyl)-1,2-dihydrophthalazin-1-one], the pIC50 at ROCK1 and against ROCK2 was 7.00 to 10.00 in each case.
Regarding `O=C(Nc1ccc(-c2n[nH]c(=O)c3ccccc23)cc1)c1nn(CC2CCOC2)c2ccc(F)cc12` (stereo not drawn) [Example 173, 5-fluoro-N-[4-(4-oxo-3,4-dihydrophthalazin-1-yl)phenyl]-1-(oxolan-3-ylmethyl)-1H-indazole-3-carboxamide], the pIC50 at ROCK1 and against ROCK2 was 7.00 to 10.00 each time.
Regarding `CN(C)c1ccc(C(=O)Nc2ccc(-c3n[nH]c(=O)c4ccccc34)cc2)cc1` [Example 58, 4-(dimethylamino)-N-[4-(4-oxo-3,4-dihydrophthalazin-1-yl)phenyl]benzamide], the negative-log IC50 (pIC50) at ROCK1 and at ROCK2 was 7.00 to 10.00 throughout.
In the case of `COC(=O)CCn1nc(C(=O)Nc2ccc(-c3n[nH]c(=O)c4ccccc34)cc2)c2ccccc21` [Example 332, Methyl 3-(3-((4-(4-oxo-3,4-dihydrophthalazin-1-yl)phenyl)carbamoyl)-1H-indazol-1-yl)propanoate], the pIC50 at ROCK1 and against ROCK2 was 7.00 to 10.00 in each case.
In the case of `Cc1nc(C(=O)Nc2ccc(-c3n[nH]c(=O)c4ccccc34)cc2)c[nH]1` [Example 242, 2-methyl-N-[4-(4-oxo-3,4-dihydrophthalazin-1-yl)phenyl]-1H-imidazole-4-carboxamide], the negative-log IC50 (pIC50) at ROCK1 was 6.00 to 7.00; at ROCK2 it was 7.00 to 10.00.
In the case of `O=C(Nc1ccc(-c2n[nH]c(=O)c3ccccc23)cc1)C1Cc2cc(O)ccc2O1` (stereo not drawn) [Example 106, 5-hydroxy-N-[4-(4-oxo-3,4-dihydrophthalazin-1-yl)phenyl]-2,3-dihydro-1-benzofuran-2-carboxamide], the pIC50 is 4.30 to 6.00 at ROCK1 and 7.00 to 10.00 on ROCK2.
For the compound `O=C(O)COc1ccc2c(c1)N(C(=O)Cc1ccc(-c3n[nH]c(=O)c4ccccc34)cc1)CC2` [Example 290, 2-((1-(2-(4-(4-Oxo-3,4-dihydrophthalazin-1-yl)phenyl)acetyl)indolin-6-yl)oxy)acetic Acid], the pIC50 on ROCK1 and against ROCK2 was 7.00 to 10.00 each time.
For the compound `Cn1nc2c(c1C(=O)Nc1ccc(-c3n[nH]c(=O)c4ccccc34)cc1)CCCC2` [Example 116, 2-methyl-N-[4-(4-oxo-3,4-dihydrophthalazin-1-yl)phenyl]-4,5,6,7-tetrahydro-2H-indazole-3-carboxamide], the negative-log IC50 (pIC50) on ROCK1 and on ROCK2 was 7.00 to 10.00 each time.
Turning to “N-[4-(4-oxo-3,4- dihydrophthalazin-1- yl)phenyl]pyrazolo[1,5- a]pyrimidine-2- carboxamide [Example 102]”, the negative-log IC50 (pIC50) on ROCK1 and against ROCK2 was 7.00 to 10.00 each time.
For the compound `O=C(Cc1ccc(-c2n[nH]c(=O)c3ccccc23)c(F)c1)N1CCc2ccccc21` [Example 261, 4-(2-Fluoro-4-(2-(indolin-1-yl)-2-oxoethyl)phenyl)phthalazin-1(2H)-one], the negative-log IC50 (pIC50) at ROCK1 and at ROCK2 was 7.00 to 10.00 each time.
`CC(C)N1CC(C(=O)Nc2ccc(-c3n[nH]c(=O)c4ccccc34)cc2)CC1=O` (stereo not drawn) [Example 218, 5-oxo-N-[4-(4-oxo-3,4-dihydrophthalazin-1-yl)phenyl]-1-(propan-2-yl)pyrrolidine-3-carboxamide]: the results for the pIC50 on ROCK1 and against ROCK2 were 4.30 to 6.00 and 6.00 to 7.00, respectively.
Regarding `CC(=O)N1CCC(Cn2nc(C(=O)Nc3ccc(-c4n[nH]c(=O)c5ccccc45)cc3)c3ccccc32)CC1` [Example 343, 1-((1-Acetylpiperidin-4-yl)methyl)-N-(4-(4-oxo-3,4-dihydrophthalazin-1-yl)phenyl)-1H-indazole-3-carboxamide], the negative logarithm of the IC50 (pIC50) on ROCK1 and on ROCK2 was 7.00 to 10.00 each time.
On to `Cc1cc(CC(=O)N2CCc3ccccc32)ccc1-c1n[nH]c(=O)c2ccccc12` [Example 259, 4-(4-(2-(Indolin-1-yl)-2-oxoethyl)-2-methylphenyl)phthalazin-1(2H)-one], for which the pIC50 on ROCK1 was 6.00 to 7.00; against ROCK2 it was 7.00 to 10.00.
Take `O=C(Cc1ccc(-c2n[nH]c(=O)c3ccccc23)cc1)N1Cc2ccc(F)cc2C1` [Example 2, 4-(4-(2-(5-Fluoroisoindolin-2-yl)-2-oxoethyl)phenyl)phthalazin-1 (2H)-one]: the pIC50 at ROCK1 is 6.00 to 7.00; on ROCK2 it was 7.00 to 10.00.
For the compound `COc1ccc2c(-c3ccc(NC(=O)c4nn(CC(C)(C)O)c5ccccc45)cc3)n[nH]c(=O)c2c1` [Example 369, 1-(2-Hydroxy-2-methylpropyl)-N-(4-(6-methoxy-4-oxo-3,4-dihydrophthalazin-1-yl)phenyl)-1H-indazole-3-carboxamide], the figures for the negative-log IC50 (pIC50) on ROCK1 and against ROCK2 were 6.00 to 7.00 and 7.00 to 10.00, respectively.
On to `O=C(Nc1ccc(-c2n[nH]c(=O)c3ccccc23)c(CO)c1)c1nn(CCO)c2ccccc12` [Example 359, 1-(2-Hydroxyethyl)-N-(3-(hydroxymethyl)-4-(4-oxo-3,4-dihydrophthalazin-1-yl)phenyl)-1H-indazole-3-carboxamide], for which the pIC50 was 4.30 to 6.00 on ROCK1 and 7.00 to 10.00 at ROCK2.
For the compound `O=C(Nc1ccc(-c2n[nH]c(=O)c3ccccc23)cc1)C1CC(=O)N(c2cccc(Cl)c2F)C1` (stereo not drawn) [Example 211, 1-(3-chloro-2-fluorophenyl)-5-oxo-N-[4-(4-oxo-3,4-dihydrophthalazin-1-yl)phenyl]pyrrolidine-3-carboxamide], the pIC50 on ROCK1 was 4.30 to 6.00; against ROCK2 it was 6.00 to 7.00.
The matching figures for `O=C(Nc1ccc(-c2n[nH]c(=O)c3ccccc23)cc1)c1cnn(CC(O)(C(F)(F)F)C(F)(F)F)c1` [Example 380, N-(4-(4-Oxo-3,4-dihydrophthalazin-1-yl)phenyl)-1-(3,3,3-trifluoro-2-hydroxy-2-(trifluoromethyl)propyl)-1H-pyrazole-4-carboxamide]: 6.00 to 7.00 and 7.00 to 10.00.
For the compound `CCOc1ccc2c(c1)N(C(=O)Cc1ccc(-c3n[nH]c(=O)c4ccccc34)cc1)CC2` [Example 33, 4-{4-[2-(6-ethoxy-2,3-dihydro-1H-indol-1-yl)-2-oxoethyl]phenyl}-1,2-dihydrophthalazin-1-one], the negative-log IC50 (pIC50) at ROCK1 and on ROCK2 was 7.00 to 10.00 throughout.
For the compound `O=C(Cc1ccc(-c2c[nH]c(=O)c3ccccc23)cc1)N1Cc2ccccc2C1` [Example 38, 4-(4-(2-(Isoindolin-2-yl)-2-oxoethyl)phenyl)isoquinolin-1(2H)-one], the results for the pIC50 on ROCK1 and against ROCK2 were 6.00 to 7.00 and 7.00 to 10.00, respectively.
Turning to `O=C(Nc1ccc(-c2n[nH]c(=O)c3ccccc23)cc1)c1cnn(C2CCOCC2)c1` [Example 384, N-(4-(4-Oxo-3,4-dihydrophthalazin-1-yl)phenyl)-1-(tetrahydro-2H-pyran-4-yl)-1H-pyrazole-4-carboxamide], the pIC50 is 6.00 to 7.00 on ROCK1 and 7.00 to 10.00 against ROCK2.
For the compound `CC(C)(O)Cn1cc(C(=O)Nc2ccc(-c3n[nH]c(=O)c4ccccc34)cc2)c2ccccc21` [Example 138, 1-(2-hydroxy-2-methylpropyl)-N-[4-(4-oxo-3,4-dihydrophthalazin-1-yl)phenyl]-1H-indole-3-carboxamide], the pIC50 on ROCK1 and against ROCK2 was 7.00 to 10.00 throughout.
For `Cc1oc2ccc(OCc3ccccc3)cc2c1C(=O)Nc1ccc(-c2n[nH]c(=O)c3ccccc23)cc1` [Example 105, 5-(benzyloxy)-2-methyl-N-[4-(4-oxo-3,4-dihydrophthalazin-1-yl)phenyl]-1-benzofuran-3-carboxamide], the values for the negative logarithm of the IC50 (pIC50) on ROCK1 and at ROCK2 were 6.00 to 7.00 and 7.00 to 10.00, respectively.
For `O=C(Nc1ccc(-c2n[nH]c(=O)c3ccccc23)cc1)C1CCN(c2ccccc2)C1=O` (stereo not drawn) [Example 215, 2-oxo-N-[4-(4-oxo-3,4-dihydrophthalazin-1-yl)phenyl]-1-phenylpyrrolidine-3-carboxamide], the negative-log IC50 (pIC50) at ROCK1 and at ROCK2 was 6.00 to 7.00 throughout.
As for `O=C(Cc1ccc(-c2n[nH]c(=O)c3ccccc23)cc1)N1CCc2ccc(OCc3cccnc3)cc21` [Example 270, 4-(4-{2-oxo-2-[6-(pyridin-3-ylmethoxy)-2,3-dihydro-1H-indol-1-yl]ethyl}phenyl)-1,2-dihydrophthalazin-1-one], the pIC50 on ROCK1 and on ROCK2 was 7.00 to 10.00 in each case.
`O=C(Nc1ccc(-c2n[nH]c(=O)c3ccccc23)cc1)c1ccnn1-c1ccccc1` [Example 236, N-[4-(4-oxo-3,4-dihydrophthalazin-1-yl)phenyl]-1-phenyl-1H-pyrazole-5-carboxamide]: the pIC50 at ROCK1 is 6.00 to 7.00; against ROCK2, 7.00 to 10.00.
For `CN1CC(Cn2nc(C(=O)Nc3ccc(-c4n[nH]c(=O)c5ccccc45)cc3)c3ccccc32)C1` [Example 340, 1-((1-Methylazetidin-3-yl)methyl)-N-(4-(4-oxo-3,4-dihydrophthalazin-1-yl)phenyl)-1H-indazole-3-carboxamide], in that order: 7.00 to 10.00 and 7.00 to 10.00.
In the case of `CN1CC[C@H](Oc2ccc3c(c2)N(C(=O)Cc2ccc(-c4n[nH]c(=O)c5ccccc45)cc2)CC3)C1` [Example 281, 4-{4-[2-(6-{[(3S)-1-methylpyrrolidin-3-yl]oxy}-2,3-dihydro-1H-indol-1-yl)-2-oxoethyl]phenyl}-1,2-dihydrophthalazin-1-one], the pIC50 at ROCK1 was 6.00 to 7.00; against ROCK2, 7.00 to 10.00.
Consider `CC(O)Cn1nc(C(=O)Nc2ccc(-c3n[nH]c(=O)c4ccccc34)cc2)c2ccccc21` (stereo not drawn) [Example 153, 1-(2-hydroxypropyl)-N-[4-(4-oxo-3,4-dihydrophthalazin-1-yl)phenyl]-1H-indazole-3-carboxamide], for which the negative logarithm of the IC50 (pIC50) at ROCK1 and at ROCK2 was 7.00 to 10.00 in each case.
For the compound `Cc1cc(NC(=O)c2nn(CC3(C)COC3)c3ccccc23)ccc1-c1n[nH]c(=O)c2ccccc12` [Example 314, N-[3-methyl-4-(4-oxo-3,4-dihydrophthalazin-1-yl)phenyl]-1-[(3-methyloxetan-3-yl)methyl]-1H-indazole-3-carboxamide], the pIC50 at ROCK1 and against ROCK2 was 7.00 to 10.00 in each case.
